Where “and” joins values, the source holds several entries; their conditions need not be identical. Equal entries are not always repeated.
Columns and labels:
[1] = system: murine fibroblast line L929; assay: 3D (DNA Damage Detection) test after H2O2 stress; assay type: cell-based; conditions: 3 μg/ml, L929 pre-treated 16 hours, H2O2 100 μM 30 minutes; for % DNA protection: basal control 100%, H2O2 stressed 0%
From the text: They decided to generate the lesions to DNA by means of H2O2 stress and to analyze indirectly the damage thereby caused, by analyzing the repair reaction. For that purpose, a kit referred to as the 3D (standing for “DNA Damage Detection”) test was used. This biochemical test mimics, in vitro, the repair reaction by means of excision (Salles B. et al Anal. Biochem. 1995; 232: 37-42 and Salles B. et al Biochimie 1999; 81: 53-58). The 3D test is based on the repairing of DNA lesions using purified human cell extracts.
The products were assessed using the murine fibroblast line L929. The cells are pre-treated with the products (Table III) for 16 hours and are then stimulated with H2O2 (Hydrogen Peroxide 3%—Ref. GIFRER—Laboratoire Gifrer Barbezat) at 100 μM for 30 minutes.
The principle is as follows: After damaging the genomic DNA (oxidative treatment), the cells are lysed. The lysate is deposited on a microplate coated with polylysine: • 1—Adsorption of the DNA • 2—Incubation of the DNA with a protein extract (enriched with repair enzymes) and a pool of nucleotides wherein one nucleotide is labeled with biotin (dUTP-Biotin)—Repair of the lesions and incorporation of the “dUTP-Biotin” labeled nucleotides in the DNA. • 3—Incubation with an “Avidin-Peroxidase” enzyme complex—Recognition by the avidin of the incorporated dUTP-Biotin. • 4—Addition of a luminescent peroxidase substrate and quantification of the emitted signal, which is proportional to the number of repaired lesions.
The test performance protocol is followed in accordance with the instructions of the kit supplier (Solyscel 3D Test—Ref: SFRIDN013— AES Laboratoire). At the end of the reaction, the plate is read in a luminometer (MITHRAS LB940-BERTHOLD).
The ratio below allows the percentage protection against the causation of lesions to DNA by oxidative stress to be calculated for each concentration of product tested (the Intensity of Luminescence—or IL—is an expression of the quantity of DNA lesions).
The values indicated in this Table are percentages of inhibition (or % protection) of lesions to DNA following exogenous oxidative stress, compared to “basal control” cells (100%) and “H2O2 stressed” cells (0%).

[2] = compared to the triterpene fraction; cited from earlier work
[3] = system: murine fibroblast line L929; assay: TBARS test: lipid peroxidation after H2O2-Fe2+/Fe3+ stress; assay type: cell-based; conditions: L929 pre-treated 16 hours, H2O2-Fe2+/Fe3+ 1 hour
Experimental: In order to assess membrane degradation, the authors of the invention have measured lipid peroxidation by means of an in vitro assay of complexes formed between the products of lipid oxidation and thiobarbituric acid. These complexes are called TBARS (standing for “Thiobarbituric Acid Reactive Substances”) and give their name to the test: the TBARS Test.
In order to mimic chemical oxidative stress, the fibroblast line L929 was treated with a complex composed of hydrogen peroxide (H2O2) and iron (Fe^2+/Fe^3+), accordingly reproducing Fenton's reaction, a source of OFRs and, more particularly, the free hydroxyl radical (OH^∘) (Vessey D. A. et al J. Invest Dermatol. 1992; 99: 859-63): H2O2+Fe^2+→OH^∘+OH^−+Fe^3+.
The products were assessed using the murine fibroblast line L929. The cells are pre-treated with the various concentrations of products (Table I) for 16 hours and then stimulated with the H2O2—Fe^2+/Fe^3+ complex for 1 hour. The LK0304 batch of unsaponifiable extract of pulp of fruit of the argan tree was prepared in accordance with Example 2.
The peroxidation of membrane lipids is analyzed by TBARS measurement (according to Morliére P. et al Biochim. Biophys. Acta. 1991; 1084: 261-268).
In an acid medium, at 95° C., complexes referred to as TBARS (standing for “ThioBarbituric Acid Reactive Substances”) are formed between the lipid oxidation products (malondialdehyde or MDA) and thiobarbituric acid (TBA), which can be fluorescence-assayed relative to a MDA standard series. The TBARS assay value is then expressed in pmol/μg of proteins. The proteins and TBARS are assayed in the intracellular medium.
Starting from the calculation of the TBARS in pmol/μg of proteins, the protective efficacy of the various products against oxidation of the lipid membranes was calculated as follows.

[4] = at a dose lower than the triterpene fraction A devoid of erythrodiol; cited from earlier work

Compound	% lesions to DNA [1] [%]	Intensity of luminescence [1]	% DNA protection [1] [%]	% DNA protection ([1]; listed as erythrodiol)	Benefit with respect to UVA and UVB [2]	Protection of membrane lipids in % Mean ([3]; 0.3 μg/ml)	Protection of membrane lipids in % Mean ([3]; 1 μg/ml) [%]	Toxicity [4]	Protection of membrane lipids in % Mean ([3]; 400 μg/ml-928.7 μM) [%]	Protection of membrane lipids in % Mean ([3]; 400 μg/ml-928.7 μM, listed as Vitamin E)
CC1(C)CC[C@]2(CO)CC[C@]3(C)C(=CC[C@@H]4[C@@]5(C)CC[C@H](O)C(C)(C)[C@@H]5CC[C@]43C)[C@@H]2C1 [Erythrodiol]	1	5520	99	the most active	only mediocre benefit	33% and 33.75%	38.43	toxic		
C=C(C)[C@@H]1CC[C@]2(C)CC[C@]3(C)[C@H](CC[C@@H]4[C@@]5(C)CC[C@H](O)C(C)(C)[C@@H]5CC[C@]43C)[C@@H]12 [Lupeol]	58.2	9020	41.8							
CC1(C)CC[C@]2(C)CC[C@]3(C)C(=CC[C@@H]4[C@@]5(C)CC[C@H](O)C(C)(C)[C@@H]5CC[C@]43C)[C@@H]2C1 [β-Amyrine]	125.4	13133.3	−25.4							
C[C@H]1[C@H](C)CC[C@]2(C)CC[C@]3(C)C(=CC[C@@H]4[C@@]5(C)CC[C@H](O)C(C)(C)[C@@H]5CC[C@]43C)[C@H]12 [α-Amyrine]	52.4	8663.3	47.6							
Vitamin E [Vit E]									56.62	about 56%
